Test results: the NIST ThermoML archive (doi:10.1016/j.jct.2009.08.012)
Where “and” joins values, the source holds several entries; their conditions need not be identical. Equal values may be shown once. Numbers after ± are expanded uncertainties.

Assay: activity coefficient (dimensionless); of the first substance listed, at infinite dilution; xn = mol fraction of the nth substance listed
Details: Liquid, Chromatography, x1 = 0

Row | Structure (SMILES) | activity coefficient (303.15 K) | activity coefficient (313.15 K) | activity coefficient (323.15 K)
1 | C=CCCCCCCCC [1-decene] + CCCCCCCC[N+](C)(CCCCCCCC)CCCCCCCC.O=S(=O)([N-]S(=O)(=O)C(F)(F)F)C(F)(F)F | 2.26 and 2.22 | 2.13 and 2.11 | 2.07 and 2.05
2 | C#CCCCCCCCC [1-decyne] + CCCCCCCC[N+](C)(CCCCCCCC)CCCCCCCC.O=S(=O)([N-]S(=O)(=O)C(F)(F)F)C(F)(F)F | 1.3 ± 0.04 | 1.33 and 1.31 | 1.32 and 1.34
3 | C=CCCCCC [1-heptene] + CCCCCCCC[N+](C)(CCCCCCCC)CCCCCCCC.O=S(=O)([N-]S(=O)(=O)C(F)(F)F)C(F)(F)F | 1.46 and 1.44 | 1.45 and 1.43 | 1.44 and 1.42
4 | C#CCCCCC [1-heptyne] + CCCCCCCC[N+](C)(CCCCCCCC)CCCCCCCC.O=S(=O)([N-]S(=O)(=O)C(F)(F)F)C(F)(F)F | 0.89 ± 0.1 | 0.89 and 0.91 | 0.9 and 0.92
5 | C#CCCCC [1-hexyne] + CCCCCCCC[N+](C)(CCCCCCCC)CCCCCCCC.O=S(=O)([N-]S(=O)(=O)C(F)(F)F)C(F)(F)F | 0.59 ± 0.03 | 0.59 ± 0.03 | 0.6 and 0.62
6 | C=CCCCCCCC [1-nonene] + CCCCCCCC[N+](C)(CCCCCCCC)CCCCCCCC.O=S(=O)([N-]S(=O)(=O)C(F)(F)F)C(F)(F)F | 1.99 ± 0.09 | 1.87 and 1.91 | 1.81 and 1.85
7 | C#CCCCCCCC [1-nonyne] + CCCCCCCC[N+](C)(CCCCCCCC)CCCCCCCC.O=S(=O)([N-]S(=O)(=O)C(F)(F)F)C(F)(F)F | 1.15 ± 0.04 | 1.15 and 1.17 | 1.18 ± 0.04
8 | C#CCCCCCC [1-octyne] + CCCCCCCC[N+](C)(CCCCCCCC)CCCCCCCC.O=S(=O)([N-]S(=O)(=O)C(F)(F)F)C(F)(F)F | 1.07 and 1.05 | 1.08 and 1.06 | 1.1 and 1.08
9 | C=CCCC [1-pentene] + CCCCCCCC[N+](C)(CCCCCCCC)CCCCCCCC.O=S(=O)([N-]S(=O)(=O)C(F)(F)F)C(F)(F)F | 0.78 ± 0.03 | 0.76 and 0.74 | 0.76 and 0.78
10 | C#CCCC [1-pentyne] + CCCCCCCC[N+](C)(CCCCCCCC)CCCCCCCC.O=S(=O)([N-]S(=O)(=O)C(F)(F)F)C(F)(F)F | 0.53 and 0.52 | 0.52 and 0.53 | 0.54 and 0.55
11 | CC(C)=O [acetone] + CCCCCCCC[N+](C)(CCCCCCCC)CCCCCCCC.O=S(=O)([N-]S(=O)(=O)C(F)(F)F)C(F)(F)F | 0.35 ± 0.04 | 0.4 and 0.38 | 0.42 and 0.44
12 | c1ccccc1 [benzene] + CCCCCCCC[N+](C)(CCCCCCCC)CCCCCCCC.O=S(=O)([N-]S(=O)(=O)C(F)(F)F)C(F)(F)F | 0.32 and 0.31 | 0.31 ± 0.04 | 0.31 and 0.32
13 | CCC(C)=O [butanone] + CCCCCCCC[N+](C)(CCCCCCCC)CCCCCCCC.O=S(=O)([N-]S(=O)(=O)C(F)(F)F)C(F)(F)F | 0.32 and 0.34 | 0.31 and 0.33 | 0.29 and 0.31
14 | C1CCCCCC1 [cycloheptane] + CCCCCCCC[N+](C)(CCCCCCCC)CCCCCCCC.O=S(=O)([N-]S(=O)(=O)C(F)(F)F)C(F)(F)F | 0.95 and 0.94 | 0.9 and 0.91 | 0.89 and 0.88
15 | C1CCCCC1 [cyclohexane] + CCCCCCCC[N+](C)(CCCCCCCC)CCCCCCCC.O=S(=O)([N-]S(=O)(=O)C(F)(F)F)C(F)(F)F | 0.84 ± 0.03 | 0.8 and 0.81 | 0.8 and 0.79
16 | C1CCCCCCCC1 [cyclononane] + CCCCCCCC[N+](C)(CCCCCCCC)CCCCCCCC.O=S(=O)([N-]S(=O)(=O)C(F)(F)F)C(F)(F)F | 1.76 and 1.74 | 1.68 ± 0.07 | 1.63 and 1.61
17 | C1CCCCCCC1 [cyclooctane] + CCCCCCCC[N+](C)(CCCCCCCC)CCCCCCCC.O=S(=O)([N-]S(=O)(=O)C(F)(F)F)C(F)(F)F | 1.08 and 1.07 | 1.01 and 1.03 | 0.99 and 1.03
18 | C1CCCC1 [cyclopentane] + CCCCCCCC[N+](C)(CCCCCCCC)CCCCCCCC.O=S(=O)([N-]S(=O)(=O)C(F)(F)F)C(F)(F)F | 0.71 ± 0.03 | 0.69 and 0.7 | 0.7 and 0.69
19 | CCCCCCCCCC [decane] + CCCCCCCC[N+](C)(CCCCCCCC)CCCCCCCC.O=S(=O)([N-]S(=O)(=O)C(F)(F)F)C(F)(F)F | 3.2 and 3 | 2.74 and 2.72 | 2.5 ± 0.11
20 | CCO [ethanol] + CCCCCCCC[N+](C)(CCCCCCCC)CCCCCCCC.O=S(=O)([N-]S(=O)(=O)C(F)(F)F)C(F)(F)F | 0.94 and 0.95 | 0.85 and 0.87 | 0.8 and 0.83
21 | CCCCCCC [heptane] + CCCCCCCC[N+](C)(CCCCCCCC)CCCCCCCC.O=S(=O)([N-]S(=O)(=O)C(F)(F)F)C(F)(F)F | 1.3 and 1.31 | 1.26 and 1.28 | 1.25 ± 0.04
22 | C=CCCCC [hex-1-ene] + CCCCCCCC[N+](C)(CCCCCCCC)CCCCCCCC.O=S(=O)([N-]S(=O)(=O)C(F)(F)F)C(F)(F)F | 0.89 and 0.88 | 0.85 ± 0.03 | 0.88 and 0.87
23 | CCCCCC [hexane] + CCCCCCCC[N+](C)(CCCCCCCC)CCCCCCCC.O=S(=O)([N-]S(=O)(=O)C(F)(F)F)C(F)(F)F | 1.13 ± 0.03 | 1.11 and 1.12 | 1.11 and 1.1
24 | CO [methanol] + CCCCCCCC[N+](C)(CCCCCCCC)CCCCCCCC.O=S(=O)([N-]S(=O)(=O)C(F)(F)F)C(F)(F)F | 0.88 and 0.89 | 0.81 and 0.82 | 0.79 and 0.81
25 | CCCCCCCCC [nonane] + CCCCCCCC[N+](C)(CCCCCCCC)CCCCCCCC.O=S(=O)([N-]S(=O)(=O)C(F)(F)F)C(F)(F)F | 2.57 and 2.59 | 2.39 ± 0.11 | 2.21 ± 0.1
26 | C=CCCCCCC [oct-1-ene] + CCCCCCCC[N+](C)(CCCCCCCC)CCCCCCCC.O=S(=O)([N-]S(=O)(=O)C(F)(F)F)C(F)(F)F | 1.69 ± 0.07 | 1.65 and 1.67 | 1.64 and 1.66
27 | CCCCCCCC [octane] + CCCCCCCC[N+](C)(CCCCCCCC)CCCCCCCC.O=S(=O)([N-]S(=O)(=O)C(F)(F)F)C(F)(F)F | 1.52 and 1.54 | 1.46 and 1.49 | 1.44 and 1.43
28 | CCCCC [pentane] + CCCCCCCC[N+](C)(CCCCCCCC)CCCCCCCC.O=S(=O)([N-]S(=O)(=O)C(F)(F)F)C(F)(F)F | 1.01 and 1 | 0.99 ± 0.11 | 1 and 0.98
29 | CCCO [propan-1-ol] + CCCCCCCC[N+](C)(CCCCCCCC)CCCCCCCC.O=S(=O)([N-]S(=O)(=O)C(F)(F)F)C(F)(F)F | 1.37 and 1.35 | 1.24 and 1.22 | 1.13 and 1.15
30 | Cc1ccccc1 [toluene] + CCCCCCCC[N+](C)(CCCCCCCC)CCCCCCCC.O=S(=O)([N-]S(=O)(=O)C(F)(F)F)C(F)(F)F | 0.51 ± 0.03 | 0.52 ± 0.03 | 0.55 and 0.53
